From US9624218B2 (Eli Lilly and Company, priority 2014, dated 2017)
Values joined by “and” are separate entries in the source; they are usually repeats but may differ in a detail not shown here. Identical values can stand only once. Like-named read-outs stand apart in the source and are kept apart here.

What was measured:
[1] = system: EGFP-Axin2 fusion protein; conditions: read-out: Axin2 Stabilization EC50; HEK293 EGFP-Axin2 cells, 24 hours; Mean ± SEM
[2] = system: Wnt-inducible genes (TCF/LEF luciferase reporter in DLD-1 TOPFlash cells); experiment: cells; conditions: Homo sapiens, DLD-1, 24 h, read-out: Wnt-inducible gene expression inhibition IC50, DLD-1 TOPFlash cells, 24 hours; Mean ± SEM
hTNKS1 = hTNKS1 (Homo sapiens (Human), UniProt O95271); experiment: hTNKS1 enzyme activity ELISA (poly ADP ribose incorporation into TRF1); assay type: biochemical; conditions: Mean ± SEM
hTNKS1, sequence (O95271 whole entry, change not shown): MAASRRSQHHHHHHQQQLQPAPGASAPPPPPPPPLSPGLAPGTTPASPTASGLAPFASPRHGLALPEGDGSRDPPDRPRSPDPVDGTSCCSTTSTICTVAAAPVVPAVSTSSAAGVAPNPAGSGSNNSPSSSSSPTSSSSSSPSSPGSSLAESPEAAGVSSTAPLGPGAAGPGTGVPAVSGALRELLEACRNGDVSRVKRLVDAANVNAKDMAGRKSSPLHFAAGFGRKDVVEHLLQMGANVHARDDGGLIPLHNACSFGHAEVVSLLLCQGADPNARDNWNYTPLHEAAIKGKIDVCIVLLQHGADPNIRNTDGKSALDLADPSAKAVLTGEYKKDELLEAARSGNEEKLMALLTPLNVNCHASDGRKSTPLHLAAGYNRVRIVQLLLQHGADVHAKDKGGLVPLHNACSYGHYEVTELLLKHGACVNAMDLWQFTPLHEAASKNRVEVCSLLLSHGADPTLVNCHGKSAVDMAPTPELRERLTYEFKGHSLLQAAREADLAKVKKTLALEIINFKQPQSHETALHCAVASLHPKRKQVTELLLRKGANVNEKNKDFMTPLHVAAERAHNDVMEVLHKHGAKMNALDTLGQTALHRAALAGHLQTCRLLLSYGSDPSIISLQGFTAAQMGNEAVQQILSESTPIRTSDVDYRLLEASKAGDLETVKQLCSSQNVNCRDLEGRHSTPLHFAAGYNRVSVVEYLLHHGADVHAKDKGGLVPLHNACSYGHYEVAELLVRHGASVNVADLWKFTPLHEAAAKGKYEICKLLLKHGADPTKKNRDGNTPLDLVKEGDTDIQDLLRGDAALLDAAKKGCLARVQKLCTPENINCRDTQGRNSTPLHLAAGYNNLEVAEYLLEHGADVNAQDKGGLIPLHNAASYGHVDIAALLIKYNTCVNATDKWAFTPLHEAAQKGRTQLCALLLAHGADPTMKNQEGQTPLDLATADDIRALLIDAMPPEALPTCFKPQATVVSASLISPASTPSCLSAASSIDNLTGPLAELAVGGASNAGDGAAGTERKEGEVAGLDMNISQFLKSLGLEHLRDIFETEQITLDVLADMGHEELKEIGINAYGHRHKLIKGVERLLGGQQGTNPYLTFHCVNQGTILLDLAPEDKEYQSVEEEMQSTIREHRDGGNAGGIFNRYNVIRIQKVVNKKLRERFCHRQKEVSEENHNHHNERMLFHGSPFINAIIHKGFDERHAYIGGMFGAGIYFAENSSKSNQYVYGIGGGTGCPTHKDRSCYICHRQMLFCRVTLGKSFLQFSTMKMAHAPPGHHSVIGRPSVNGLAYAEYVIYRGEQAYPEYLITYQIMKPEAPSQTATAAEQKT

[3] = system: Wnt-inducible genes (TCF/LEF luciferase reporter in DLD-1 TOPFlash cells); conditions: read-out: Wnt-inducible gene expression inhibition IC50, 24 hours, Mean ± SEM
Panc 04.03 cells = conditions: 11 days
HPAF-II cells = experiment: cells; conditions: Homo sapiens, read-out: % Inhibition of Colony Formation
[4] = system: C57BL/6J-Apc^Min/J strain mice; experiment: In vivo antitumor activity, intestinal polyps; conditions: 25 mg/kg BID, 60 consecutive days, small intestine
Text: C57BL/6J-Apc^Min/J strain mice carry a truncating mutation at codon 850 of the Apc gene and develop intestinal polyps and colorectal neoplasms at the age of 3-6 months. Truncation in the APC gene leads to activation of the Wnt signaling pathway and elevated levels of β catenin are frequently detected in pre-neoplastic/neoplastic lesions in these mice.
At the end of the treatment period, the animals are sacrificed and the number of polyps in the small intestine is counted under a dissection microscope.

Capan-2 cells = experiment: cells; conditions: Homo sapiens, read-out: % Inhibition of Colony Formation
A549 cells = experiment: cells; conditions: Homo sapiens, read-out: % Inhibition of Colony Formation

`CN1CCCc2c1nc(N1CCN(Cc3ccccn3)CC1)[nH]c2=O` [Example 19, 8-Methyl-2-[4-(2-pyridylmethyl)piperazin-1-yl]-3,5,6,7-tetrahydropyrido[2,3-d]pyrimidin-4-one] was tested, and the EC50 [1] was 62.6 nM and the IC50 [2] was 12.6 nM.
With `CN1CCCc2c1nc(N1CCN(Cc3ncccc3Br)CC1)[nH]c2=O` [Example 3, 2-[4-[(3-Bromo-2-pyridyl)methyl]piperazin-1-yl]-8-methyl-3,5,6,7-tetrahydropyrido[2,3-d]pyrimidin-4-one] the EC50 [1] was 18.4 nM and the IC50 [2] was 8.66 nM.
In the case of `CN1CCCc2c1nc(N1CCN(Cc3ncccc3C#N)CC1)[nH]c2=O` [Example 40, 2-[[4-(8-Methyl-4-oxo-3,5,6,7-tetrahydropyrido[2,3-d]pyrimidin-2-yl)piperazin-1-yl]methyl]pyridine-3-carbonitrile], the EC50 [1] is reported as 39.8 nM and the IC50 [2] is reported as 6.95 nM.
With `CN1CCCc2c1nc(N1CCN(Cc3ccccc3Cl)CC1)[nH]c2=O` [Example 38, 2-[4-[(2-Chlorophenyl)methyl]piperazin-1-yl]-8-methyl-3,5,6,7-tetrahydropyrido[2,3-d]pyrimidin-4-one] the EC50 [1] was 34.8 nM and the IC50 [2] was 22.2 nM.
`Cc1ccnc(CN2CCN(c3nc4c(c(=O)[nH]3)CCCN4C)CC2)n1` [Example 14, 8-Methyl-2-[4-[(4-methylpyrimidin-2-yl)methyl]piperazin-1-yl]-3,5,6,7-tetrahydropyrido[2,3-d]pyrimidin-4-one] was tested, and the EC50 [1] was 52.7 nM and the IC50 [2] was 9.35 nM.
Work on `CN1CCCc2c1nc(N1CCN(Cc3ncccc3Cl)CC1)[nH]c2=O` [Example 2, 2-[4-[(3-Chloro-2-pyridyl)methyl]piperazin-1-yl]-8-methyl-3,5,6,7-tetrahydropyrido[2,3-d]pyrimidin-4-one] yielded an EC50 [1] of 32 nM and an IC50 [2] of 8.17 nM.
In the case of `CN1CCCc2c1nc(N1CCN(Cc3ncc(F)cc3F)CC1)[nH]c2=O` [Example 45, 2-[4-[(3,5-Difluoro-2-pyridyl)methyl]piperazin-1-yl]-8-methyl-3,5,6,7-tetrahydropyrido[2,3-d]pyrimidin-4-one], the EC50 [1] is reported as 144 nM and the IC50 [2] is reported as 18.8 nM.
`CC(c1ncc(F)cn1)N1CCN(c2nc3c(c(=O)[nH]2)CCCN3C)CC1` (stereo not shown) [Example 5] was tested, and the IC50 (hTNKS1) was 85.2 nM.
With `CC(c1ncccn1)N1CCN(c2nc3c(c(=O)[nH]2)CCCN3C)CC1` (single isomer, unassigned; isomer 2) [Example 9, 8-Methyl-2-[4-(1-pyrimidin-2-ylethyl)piperazin-1-yl]-3,5,6,7-tetrahydropyrido[2,3-d]pyrimidin-4-one, Isomer 2] the EC50 [1] was 70.9 nM and the IC50 [3] was 28.2 nM.
Work on `Cc1nccnc1CN1CCN(c2nc3c(c(=O)[nH]2)CCCN3C)CC1` [Example 44, 8-Methyl-2-[4-[(3-methyl-pyrazin-2-yl)methyl]piperazin-1-yl]-3,5,6,7-tetrahydropyrido[2,3-d]pyrimidin-4-one] yielded an EC50 [1] of 118 nM and an IC50 [2] of 11.2 nM.
In the case of `COc1ccnc(CN2CCN(c3nc4c(c(=O)[nH]3)CCCN4C)CC2)n1` [Example 13, 2-[4-[(4-methoxypyrimidin-2-yl)methyl]piperazin-1-yl]-8-methyl-3,5,6,7-tetrahydropyrido[2,3-d]pyrimidin-4-one], the EC50 [1] is reported as 101 nM and the IC50 [2] is reported as 23 nM.
Molecule `CN1CCCc2c1nc(N1CCN(Cc3nccnc3Cl)CC1)[nH]c2=O` [Example 43, 2-[4-[(3-Chloropyrazin-2-yl)methyl]piperazin-l-yl]-8-methyl-3,5,6,7-tetrahydropyrido[2,3-d]pyrimidin-4-one] has an EC50 [1] of 74.5 nM.
`CC(c1ncccn1)N1CCN(c2nc3c(c(=O)[nH]2)CCCN3C)CC1` (racemic) [Example 7, 8-Methyl-2-[4-(1-pyrimidin-2-ylethyl)piperazin-1-yl]-3,5,6,7-tetrahydropyrido[2,3-d]pyrimidin-4-one] was tested, and the EC50 [1] was 121 nM and the IC50 [2] was 14.6 nM.
For `CC(c1ncccn1)N1CCN(c2nc3c(c(=O)[nH]2)CCCN3C)CC1` (single isomer, unassigned; isomer 1) [Example 8, 8-Methyl-2-[4-(1-pyrimidin-2-ylethyl)piperazin-1-yl]-3,5,6,7-tetrahydropyrido[2,3-d]pyrimidin-4-one, Isomer 1], the EC50 [1] was 71.5 nM and the IC50 [2] was 18.4 nM.
With `CCC(c1ncccn1)N1CCN(c2nc3c(c(=O)[nH]2)CCCN3C)CC1` (single isomer, unassigned; isomer 2) [Example 12, 8-Methyl-2-[4-(1-pyrimidin-2-ylpropyl)piperazin-1-yl]-3,5,6,7-tetrahydropyrido[2,3-d]pyrimidin-4-one, Isomer 2] the EC50 [1] was 122 nM and the IC50 [3] was 19.5 nM.
For `CN1CCCc2c1nc(N1CCN(Cc3ncccn3)CC1)[nH]c2=O` [Example 1, 8-Methyl-2-[4-(pyrimidin-2-ylmethyl)piperazin-1-yl]-3,5,6,7-tetrahydropyrido[2,3-d]pyrimidin-4-one], the “% Inhibition of Colony Formation” value (Panc 04.03 cells; Panc 04.03, 0.03 μM) was −34.35%, the “% Inhibition of Colony Formation” value (Panc 04.03 cells; Panc 04.03, 0.11 μM) was 51.39% and the “% Inhibition of Colony Formation” value (Panc 04.03 cells; Panc 04.03, 0.33 μM) was 92.79%. For the same molecule, the “% Inhibition of Colony Formation” value (Panc 04.03 cells; Panc 04.03, 1 μM) was 92.51%, the “% Inhibition of Colony Formation” value (Panc 04.03 cells; Panc 04.03, 3 μM) was 90.03% and the inhibition at 0.03 µM (HPAF-II cells) was 2.44%. The inhibition at 0.11 µM (HPAF-II cells) was 40.5%, the inhibition at 0.33 µM (HPAF-II cells) was 61.6% and the inhibition at 1 µM (HPAF-II cells) was 85.2%. For the same molecule, the inhibition at 3 µM (HPAF-II cells) was 88.2%, the “Average Number of polyps per Animal” value [4] was “statistically significant lower number of tumors and 4.3 ± 0.70” and the inhibition at 0.03 µM (Capan-2 cells) was -20.8%. The inhibition at 0.11 µM (Capan-2 cells) was 18%, the inhibition at 0.33 µM (Capan-2 cells) was 55.9% and the inhibition at 1 µM (Capan-2 cells) was 63.9%. It also gave an inhibition at 3 µM (Capan-2 cells) of 70.7%, an EC50 [1] of 65.9 nM and an inhibition at 0.03 µM (A549 cells) of 25.5%. It also gave an inhibition at 0.11 µM (A549 cells) of 46.5%, an inhibition at 0.33 µM (A549 cells) of 54.2% and an inhibition at 1 µM (A549 cells) of 74.3%. The inhibition at 3 µM (A549 cells) was 72.1% and the IC50 [2] was 13.2 nM.
For `CN1CCCc2c1nc(N1CCN(Cc3ncccc3F)CC1)[nH]c2=O` [Example 20, 2-[4-[(3-Fluoro-2-pyridyl)methyl]piperazin-1-yl]-8-methyl-3,5,6,7-tetrahydropyrido[2,3-d]pyrimidin-4-one], the EC50 [1] was 77.9 nM and the IC50 [2] was 22.2 nM.
Molecule `CN1CCCc2c1nc(N1CCN(Cc3ncc(C(F)(F)F)cn3)CC1)[nH]c2=O` [Example 15, 8-Methyl-2-[4-[[5-(trifluoromethyl)pyrimidin-2-yl]methyl)piperazin-1-yl]-3,5,6,7-tetrahydropyrido[2,3-d]pyrimidin-4-one] has an EC50 [1] of 115 nM and an IC50 [2] of 15.4 nM.
Molecule `CCC(c1ncccn1)N1CCN(c2nc3c(c(=O)[nH]2)CCCN3C)CC1` (stereo not shown) [Example 10, 8-Methyl-2-[4-(1-pyrimidin-2-ylpropyl)piperazin-1-yl]-3,5,6,7-tetrahydropyrido[2,3-d]pyrimidin-4-one] has an EC50 [1] of 590 nM and an IC50 [2] of 171 nM.
Molecule `CN1CCCc2c1nc(N1CCN(Cc3ncc(Cl)cn3)CC1)[nH]c2=O` [Example 18, 2-[4-[(5-Chloropyrimidin-2-yl)methyl]piperazin-1-yl]-8-methyl-3,5,6,7-tetrahydropyrido[2,3-d]pyrimidin-4-one] has an EC50 [1] of 901 nM and an IC50 [2] of 156 nM.
With `Cc1cnc(CN2CCN(c3nc4c(c(=O)[nH]3)CCCN4C)CC2)nc1` [Example 17, 8-Methyl-2-[4-[(5-methylpyrimidin-2-yl)methyl]piperazin-1-yl]-3,5,6,7-tetrahydropyrido[2,3-d]pyrimidin-4-one] the EC50 [1] was 198 nM and the IC50 [2] was 37.3 nM.
In the case of `CN1CCCc2c1nc(N1CCN(Cc3nccc(Cl)n3)CC1)[nH]c2=O` [Example 41, 2-[4-[(4-Chloropyrimidin-2-yl)methyl]piperazin-1-yl]-8-methyl-3,5,6,7-tetrahydropyrido[2,3-d]pyrimidin-4-one], the EC50 [1] is reported as 61.6 nM.
For `CN1CCCc2c1nc(N1CCN(Cc3nccc(C(F)(F)F)n3)CC1)[nH]c2=O` [Example 16, 8-Methyl-2-[4-[[4-(trifluoromethyl)pyrimidin-2-yl]methyl]piperazin-1-yl]-3,5,6,7-tetrahydropyrido[2,3-d]pyrimidin-4-one], the EC50 [1] was 509 nM and the IC50 [2] was 102 nM.
With `CN1CCCc2c1nc(N1CCN(Cc3ncccc3O)CC1)[nH]c2=O` [Example 4, 2-[4-[(3-Hydroxy-2-pyridyl)methyl]piperazin-1-yl]-8-methyl-3,5,6,7-tetrahydropyrido[2,3-d]pyrimidin-4-one] the EC50 [1] was 26.9 nM and the IC50 [2] was 6.71 nM.
With `CN1CCCc2c1nc(N1CCN(Cc3ncc(F)cn3)CC1)[nH]c2=O` [Example 39, 2-[4-[(5-Fluoropyrimidin-2-yl)methyl]piperazin-1-yl]-8-methyl-3,5,6,7-tetrahydropyrido [2,3-d]pyrimidin-4-one] the EC50 [1] was 181 nM and the IC50 [2] was 20.6 nM.
For `CN1CCCc2c1nc(N1CCN(Cc3cnccn3)CC1)[nH]c2=O` [Example 42, 8-Methyl-2-[4-(pyrazin-2-ylmethyl)piperazin-1-yl]-3,5,6,7-tetrahydropyrido[2,3-d]pyrimidin-4-one], the EC50 [1] was 141 nM and the IC50 [2] was 22 nM.
